Each structure is given as a SMILES string. “And” between values parts separate entries of the source, which are not always exact repeats. Identical values can stand only once.

The IC50 is the concentration needed to halve the response being measured.

Data set [1] concerns murine neuroblastoma neuro-2A cells. Conditions: read-out: Neurotoxicity on neuro-2A cells (IC50); cited from earlier work.
Data set [2] in a line: Neurotoxicity test, MTT-dye reduction assay on neuro-2A cells. The format is cell-based, murine. Particulars: mouse, neuro-2A neuroblastoma cells, 72 h incubation. As for the experimental part:
The cytotoxicity of compound 8 was tested on neuro-2A cells as described in the Materials and Мethods section.
To assess the neurocytotoxicity of the selected compound, murine neuroblastoma neuro-2A cells (German collection DSMZ, Braunschweig, Germany) were used. They were cultivated under standard conditions: complete medium (90% DMEM, 10% heat-inactivated FBS, and non-essential amino acids); 37 °C and 5% CO2 in a fully humidified atmosphere. The cell line was kept in the logarithmic growth phase by splitting 1:4 once a week using trypsin/EDTA. About 30% of the cells grew like neuronal cells. For the experimental evaluation of the cytotoxicity, the cells were plated in 96-well flat-bottomed plates at the recommended density of around 1100 cells/25 cm^2. After 24 h, the cells were treated with a series of concentrations (100, 50, 25, 12.5, 6.25 µM) of the tested compound, and after 72 h incubation, an MTT-dye reduction assay was performed. MTT stock solution (10 mg/mL in PBS) was added (0.01 mL/well) at the end of incubation. Plates were further incubated at 37 °C for 4 h. Next, the formazan crystals were dissolved by the addition of 0.110 mL/well 5% formic acid in 2-propanol (v/v). Absorption was measured at 580 nm wavelength on an automated ELISA reader Labexim LMR1. […]
Background: Formazan colour is commonly taken as a measure of viable cells.

The target of data set [3] is T1, acetylcholinesterase from Electrophorus electricus (eeAChE) (Electrophorus electricus, UniProt O42275).
T1 construct: purchased Sigma-Aldrich
T1 sequence (O42275 24-633): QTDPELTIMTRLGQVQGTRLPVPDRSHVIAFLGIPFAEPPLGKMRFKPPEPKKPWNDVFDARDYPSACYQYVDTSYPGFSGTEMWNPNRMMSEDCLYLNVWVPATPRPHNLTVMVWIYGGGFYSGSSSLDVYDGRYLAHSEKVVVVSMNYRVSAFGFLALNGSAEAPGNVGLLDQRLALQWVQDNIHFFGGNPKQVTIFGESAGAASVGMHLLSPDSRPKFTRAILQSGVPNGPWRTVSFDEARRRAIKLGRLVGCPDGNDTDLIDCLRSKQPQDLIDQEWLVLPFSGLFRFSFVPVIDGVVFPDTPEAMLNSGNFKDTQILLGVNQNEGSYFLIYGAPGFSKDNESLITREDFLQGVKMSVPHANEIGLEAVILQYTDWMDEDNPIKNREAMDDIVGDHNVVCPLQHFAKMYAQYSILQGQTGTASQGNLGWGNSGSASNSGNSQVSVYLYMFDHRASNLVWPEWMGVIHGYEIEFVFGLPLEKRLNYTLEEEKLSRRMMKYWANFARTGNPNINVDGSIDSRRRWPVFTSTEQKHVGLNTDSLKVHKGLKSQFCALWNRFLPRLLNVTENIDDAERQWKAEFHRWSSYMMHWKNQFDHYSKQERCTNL
As to the kind of experiment: biochemical. In kind it is biochemical. As for the experimental part: However, the docking simulations were conducted on human AChE (rhAChE).
The microplate assay used for measuring AChE inhibitory activity was as described by Ellman with the modifications added by López. Acetylthiocholine iodide (ATCI) in a solution with 5,5′-dithiobis(2-nitrobenzoic acid) (DTNB) was used as a substrate for the acetylcholinesterase from Electrophorus electricus (Steinheim, Sigma-Aldrich, Germany). 50 μL of AChE (0.25 U/mL) dissolved in phosphate buffer (8 mM K2HPO4, 2.3 mM NaH2PO4, 0.15 M NaCl, pH 7.5) and 50 μL of the sample dissolved in the same buffer were added to the wells. The plates were incubated for 30 min at room temperature before the addition of 100 μL of the substrate solution (0.04 M Na2HPO4, 0.2 mM DTNB, 0.24 mM ATCI, pH 7.5). […] Enzyme activity was calculated as an inhibition percentage compared to an assay using a buffer without any inhibitor. […] The AChE inhibitory data were analyzed with the software package Prism 9 (GraphPad Inc., San Diego, USA). The IC50 values were measured in triplicate, and the results are presented as means ± SD.

Take `COc1ccc2c3c1O[C@H]1C[C@@H](O)C=C[C@@]31CCN(C)C2` [GAL, Galantamine]: the IC50 in data set [1] is > 50 µM.
In the case of `COc1ccc2c3c1O[C@H]1C[C@@H](O)C=C[C@@]31CCN(CCNC(=O)CCc1ccccc1-c1ccccc1)C2` [Compound 8, 3-(biphenyl-2-yl)-N-{2-[(4aS,6R,8aS)-6-hydroxy-3-methoxy-5,6,9,10-tetrahydro-4aH-[1]benzofuro[3a,3,2-ef][2]benzazepin-11(12H)-yl]ethyl}propanamide], in data set [2], the IC50 at 72 h was > 100 µM. The “Times more active than GAL (AChE inhibition)” value in data set [3] amounted to 68 times. In addition, in data set [3] (eeAChE, Ellman's method, 30 min preincubation, mean ± SD, triplicate, read-out: Inhibitory activity on eeAChE (IC50)), the IC50 was 28 nM and 27.8 nM.

The values above are taken from paper PMC8038331, “Discovery of a Novel Acetylcholinesterase Inhibitor by Fragment-Based Design and Virtual Screening” (Molecules, 2021).
